Columns and labels:
[1] = system: rabbit serum obtained by immunizing a rabbit with the SARS-CoV strain Frankfurt 1; assay type: binding; design: Binding of a rabbit serum to linear peptides / Binding of a rabbit serum to looped peptides / Rabbit serum linear peptides / Rabbit serum looped peptides / Binding of a rabbit serum to linear peptides of protein N of SARS-CoV Urbani (Rabbit serum linear peptides) / Binding of a rabbit serum to looped/cyclic peptides of protein N of SARS-CoV Urbani (Rabbit serum looped peptides): unit not given here
[2] = system: control sera (pooled serum of ten healthy LUMC hospital workers; commercial negative donor pooled serum from the Dutch bloodbank); assay type: binding, human; design: Binding of Control serum LUMC to linear peptides / Binding of Control serum Blood-bank to linear peptides / Binding of Control serum LUMC to looped peptides / Binding of Control Serum Blood-Bank to Looped peptides / Binding of Control serum LUMC to linear peptides of the protein M of SARS-CoV Urbani / Binding of Control serum Blood-bank to linear peptides of the protein M of SARS-CoV Urbani / Binding of Control serum LUMC to looped peptides of the protein M of SARS-CoV Urbani / Binding of Control Serum Blood-Bank to Looped peptides of the protein M of SARS-CoV Urbani: unit not given here
[3] = system: recombinant human anti-SARS-CoV antibody 03-018; assay type: binding; design: Binding of antibody 03-018 to linear peptides of the N protein of SARS-CoV Urbani / Binding of antibody 03-018 to looped/cyclic peptides of the N protein of SARS-CoV Urbani: unit not given here
[4] = system: antibodies in sera from SARS patients (sera 1a, 1b, 2, 6, 37, 62, London, SARS-yellow, SARS-green); assay type: binding, human; design: Binding of serum 6 to linear peptides of protein X1 of SARS-CoV Urbani / Binding of serum 37 to linear peptides of protein X1 of SARS-CoV Urbani / Binding of serum 6 to looped/cyclic peptide (PEPSCAN-ELISA) / Binding of serum 37 to looped/cyclic peptide (PEPSCAN-ELISA) / Binding of serum 37 to looped/cyclic peptides of protein X1 of SARS-CoV Urbani / Binding of serum 6 to linear peptides of protein X2 / Binding of serum 37 to linear peptides of protein X2 / Binding of serum 37 to looped/cyclic peptides of protein X2 of SARS-CoV Urbani / Binding of serum 6 to linear peptides of protein M of SARS-CoV Urbani / Binding of serum 37 to linear peptides of protein M of SARS-CoV Urbani / Binding of serum 6 to looped/cyclic peptides of protein M of SARS-CoV Urbani / Binding of serum 37 to looped/cyclic peptides of protein M of SARS-CoV Urbani / Binding of serum 6 to linear peptides of protein X3 of SARS-CoV Urbani / Binding of serum 37 to linear peptides of protein X3 of SARS-CoV Urbani / Binding of serum 37 to looped/cyclic peptides of protein X3 of SARS-CoV Urbani / Binding of serum 6 to linear peptides of protein X4 of SARS-CoV Urbani / Binding of serum 37 to linear peptides of protein X4 of SARS-CoV Urbani / Binding of serum 37 to looped/cyclic peptides of protein X4 of SARS-CoV Urbani / Binding of serum 6 to linear peptides of protein X5 of SARS-CoV Urbani / Binding of serum 37 to linear peptides of protein X5 of SARS-CoV Urbani / Binding of serum 37 to looped/cyclic peptides of protein X5 of SARS-CoV Urbani / Binding of serum 6 to linear peptides of protein N of SARS-CoV Urbani / Binding of serum 37 to linear peptides of protein N of SARS-CoV Urbani / Binding of serum 6 to linear peptide (PEPSCAN-ELISA) / Binding of serum 1a to looped/cyclic peptides of protein N of SARS-CoV Urbani / Binding of serum 1b to looped/cyclic peptides of protein N of SARS-CoV Urbani / Binding of serum 2 to looped/cyclic peptides of protein N of SARS-CoV Urbani / Binding of serum 6 to looped/cyclic peptides of protein N of SARS-CoV Urbani / Binding of serum 37 to looped/cyclic peptides of protein N of SARS-CoV Urbani / Binding of serum 62 to looped/cyclic peptides of protein N of SARS-CoV Urbani / Binding of serum London to looped/cyclic peptides of protein N of SARS-CoV Urbani / Binding of serum SARS-green to looped/cyclic peptides of protein N of SARS-CoV Urbani: unit not given here

Sequence	Binding of a rabbit serum to linear peptides of protein N of SARS-CoV Urbani (Rabbit serum linear peptides) [1]	Binding of a rabbit serum to looped/cyclic peptides of protein N of SARS-CoV Urbani (Rabbit serum looped peptides) [1]	Binding of antibody 03-018 to linear peptides of the N protein of SARS-CoV Urbani [3]	Binding of antibody 03-018 to looped/cyclic peptides of the N protein of SARS-CoV Urbani [3]	Binding of serum 1a to linear peptides of protein N of SARS-CoV Urbani [4]	Binding of serum 1a to looped/cyclic peptides of protein N of SARS-CoV Urbani [4]	Binding of serum 1b to linear peptides of protein N of SARS-CoV Urbani [4]	Binding of serum 1b to looped/cyclic peptides of protein N of SARS-CoV Urbani [4]	Binding of serum 2 to linear peptides of protein N of SARS-CoV Urbani [4]	Binding of serum 2 to looped/cyclic peptides of protein N of SARS-CoV Urbani [4]	Binding of serum 6 to linear peptides of protein N of SARS-CoV Urbani [4]	Binding of serum 6 to looped/cyclic peptides of protein N of SARS-CoV Urbani [4]	Binding of serum 37 to linear peptides of protein N of SARS-CoV Urbani [4]	Binding of serum 37 to looped/cyclic peptides of protein N of SARS-CoV Urbani [4]	Binding of serum 62 to linear peptides of protein N of SARS-CoV Urbani [4]	Binding of serum 62 to looped/cyclic peptides of protein N of SARS-CoV Urbani [4]	Binding of serum London to linear peptides of protein N of SARS-CoV Urbani [4]	Binding of serum London to looped/cyclic peptides of protein N of SARS-CoV Urbani [4]	Binding of serum SARS-green to linear peptides of protein N of SARS-CoV Urbani [4]	Binding of serum SARS-green to looped/cyclic peptides of protein N of SARS-CoV Urbani [4]	also measured
HGKEELRFPRGQGVP	0.1	0.3	0.1	0.2	0.2	0.3	0.2	0.2	0.3	0.4	0.1	0.2	0.7	0.5	0.7	0.3	0.5	0.4	0.5	0.2	Binding of Control Serum Blood-Bank to Looped peptides [2]: 0.5; Binding of Control serum Blood-bank to linear peptides [2]: 0.8; Binding of Control serum LUMC to linear peptides [2]: 0.6; Binding of Control serum LUMC to looped peptides [2]: 0.5; Binding of serum SARS-yellow to linear peptides of protein N of SARS-CoV Urbani [4]: 0.7; Binding of serum SARS-yellow to looped/cyclic peptides of protein N of SARS-CoV Urbani [4]: 0.5
HIDAYKTFPPTEPKK	0.1	0.0	0.1	0.2	0.2	0.2	0.1	0.1	0.2	0.2	0.2	0.1	0.6	0.3	0.6	0.2	0.4	0.3	0.2	0.0	Control Serum Blood-Bank Looped peptides [2]: 0.4; Control serum Blood-bank linear peptides [2]: 0.6; Control serum LUMC linear peptides [2]: 0.7; Control serum LUMC looped peptides [2]: 0.3; Binding of serum SARS-yellow to linear peptides of protein N of SARS-CoV Urbani [4]: 0.5; Binding of serum SARS-yellow to looped/cyclic peptides of protein N of SARS-CoV Urbani [4]: 0.0

Reference: patent publication US20070128217A1 (priority 2003, published 2007)
